Measurements from article PMC11425212 (2024).

Key:
[1] = system: ATF4-G4 (Pu22T) (DNA, G4) TAAGGGAGGGAGGGAAGGGAGC; assay: fluorescence titration; conditions: 50 mM K+; 0.2 µM COP, DNA added stepwise; excitation 377 nm, emission 520-600 nm
[2] = system: ATF4-G4 (Pu22T) (DNA, G4) TAAGGGAGGGAGGGAAGGGAGC; assay: CD melting at 264 nm; conditions: 5 mM K+ (potassium phosphate); pH 7; 20 µM DNA; COP concentration not given
[3] = system: ATF4-G4 (Pu22T) (DNA, G4) TAAGGGAGGGAGGGAAGGGAGC; assay: NMR solution structure and 1H NMR titration; conditions: 10 mM K+ (structure); 50 mM K+ (titration); pH 7, 25 °C; 2.11 mM DNA with 2.4 equivalents COP

SMILES: c1c2c(cc3c1OCO3)-c1cc3ccc4c(c3c[n+]1CC2)OCO4
- Kd [1]: ~ 3.9 µM
- ΔTm [2]: 25 °C
- binding [3]: yes
